Source: patent publication US11266662B2, “Ganaxolone for use in prophylaxis and treatment of postpartum depression” (Marinus Pharmaceuticals, Inc., priority 2018, dated 2022)

Columns and labels:
[1] = test system: BTBR mouse model of autism; conditions: Kazdoba et al, 2016; cited from earlier work
[2] = Human pharmacokinetics after oral administration; conditions: in vivo
[3] = Tissue distribution of [14C]-ganaxolone; conditions: mouse, rat, brain
[4] = Example 3 Phase 2 study of oral ganaxolone in women with PPD: expected plasma concentrations; type: in vivo, human
Procedure: Approximately 172 women aged 18 to 48 years with PPD are screened, and approximately 88 subjects are enrolled into a Phase 2 clinical study. The enrolled subjects are assigned to five groups.
In the first group, approximately 8 subjects are titrated to a total daily oral dose of 900 mg ganaxolone per day (administered in three divided doses per day) over 10 days, followed by a taper over 4 days. For this group ganaxolone doses are titrated from 225 mg on Day 1 to a total daily oral dose of 900 mg starting on Day 7. The ganaxolone mean trough plasma concentrations during the Days 8, 9, and 10 are predicted to be about 40 ng/ml, based on PK modelling. Bedtime doses are selected to be higher than the daytime doses, and are expected to yield plasma mean peak concentrations up to 180 ng/ml during the night on Days 8, 9 and 10.
In the third group, approximately 20 subjects receive ganaxolone administered orally at a dose of 675 mg QHS for 28 days, followed by a taper over 4 days. The trough ganaxolone levels are expected to be below 40 ng/ml.
In the fourth group, approximately 20 subjects receive orally, on the first 2 days, ganaxolone capsules 675 mg at dinner time and 675 mg at bedtime (for a total of 1,350 mg per day on the first 2 days), followed by 26 days of ganaxolone capsules 1,125 mg at dinner time (high fat diet), and a taper over 4 days. […]

## CC(=O)[C@H]1CC[C@H]2[C@@H]3CC[C@H]4C[C@](C)(O)CC[C@]4(C)[C@H]3CC[C@]12C [ganaxolone, 3α-hydroxy-3β-methyl-5α-pregnan-20-one]
[1]
  Sociability: improved sociability
[2]
  Cmax: 200 to 300 ng/mL
Mutagenicity
  Mutagenicity: No potential for mutagenicity was detected
[3]
  Kp: ~5
[4]; first group, Days 8, 9 and 10
  Expected plasma mean peak concentrations during the night: up to 180 ng/ml
[4]; third group: 675 mg QHS orally for 28 days
  Expected trough ganaxolone levels: below 40 ng/ml
